We go through twelve compounds from patent US20230203029A1 (priority 2020, published 2023).

Each structure is given as a SMILES string. Like-named read-outs stand apart in the source and are kept apart here. A value given as a limit tells only on which side of the number the result lay.

The target of assay [1] is T1, Ba/F3 Pro B-cell line expressing TEL-human MERTK fusion domain (Homo sapiens, UniProt Q12866).
T1 sequence (Q12866 587-858 limits assumed): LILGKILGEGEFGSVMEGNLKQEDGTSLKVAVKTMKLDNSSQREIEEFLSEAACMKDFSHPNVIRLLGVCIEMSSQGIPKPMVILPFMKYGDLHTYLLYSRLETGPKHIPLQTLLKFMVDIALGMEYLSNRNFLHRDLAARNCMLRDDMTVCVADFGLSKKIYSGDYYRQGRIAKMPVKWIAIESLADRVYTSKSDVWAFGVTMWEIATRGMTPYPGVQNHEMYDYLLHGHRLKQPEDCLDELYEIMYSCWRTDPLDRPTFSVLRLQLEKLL
Type of assay: cell-based. The method in brief: (§1)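 Ba/F3 cells dependent on BCR-AXL or TEL-MERTK fusion kinase (IL3-free; IL3 only for control lines) treated with compound 48 h at 37 °C, 0.25% DMSO. Viability by CellTiter-Glo luminescence; IC50 for half-maximal inhibition of survival from 4-parameter variable-slope fit.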

Assay [2] has as its target T2, Ba/F3 Pro B-cell line expressing TEL-human Tyro3 fusion domain (Homo sapiens, UniProt Q06418).
T2 sequence (Q06418 518-790 limits assumed): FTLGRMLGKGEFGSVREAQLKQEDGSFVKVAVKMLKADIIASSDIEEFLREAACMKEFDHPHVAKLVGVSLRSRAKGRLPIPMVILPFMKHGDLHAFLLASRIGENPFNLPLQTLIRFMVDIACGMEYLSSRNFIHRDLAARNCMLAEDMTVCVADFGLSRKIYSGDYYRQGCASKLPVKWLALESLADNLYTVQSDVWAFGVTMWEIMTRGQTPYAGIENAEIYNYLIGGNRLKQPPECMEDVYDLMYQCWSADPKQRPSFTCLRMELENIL
The assay is classed as cell-based. Conditions: cell survival, 48 h, CellTiter-Glo. (In general: ATP-based viability assays read luminescence as a measure of living cells.)

The target of assay [3] is T3, human AXL cytoplasmic domain (Homo sapiens, UniProt P30530).
T3 construct: human AXL cytoplasmic domain (Thermo Fisher A31515); purchased Thermo Fisher A31515
T3 sequence (P30530 473-894 limits assumed): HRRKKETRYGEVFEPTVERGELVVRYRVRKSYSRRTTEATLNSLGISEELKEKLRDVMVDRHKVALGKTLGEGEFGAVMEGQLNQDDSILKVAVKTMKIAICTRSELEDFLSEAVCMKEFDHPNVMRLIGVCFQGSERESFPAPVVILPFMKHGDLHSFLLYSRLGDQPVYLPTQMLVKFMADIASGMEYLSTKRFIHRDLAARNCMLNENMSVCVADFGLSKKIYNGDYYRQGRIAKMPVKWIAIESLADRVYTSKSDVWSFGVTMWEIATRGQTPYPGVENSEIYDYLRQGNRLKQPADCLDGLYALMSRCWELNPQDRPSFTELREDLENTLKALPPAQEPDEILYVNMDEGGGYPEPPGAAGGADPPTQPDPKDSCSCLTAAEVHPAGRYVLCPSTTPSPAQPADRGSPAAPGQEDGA
Nature of the assay: Assay 1b AXL HTRF KinEASE-TK assay. Type of assay: biochemical. The procedure, abridged:
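Recombinant cytoplasmic domain (5 nM) in kinase buffer with 5 mM MgCl2, 1 mM MnCl2, 1 mM DTT, 50 nM SEB plus test compounds; reaction 30 min at room temperature. EDTA-containing detection with TK antibody-cryptate/streptavidin-XL665 for 60 min; HTRF 665/620 ratio read. IC50 from 4-parameter logistic fit with variable slope.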
For orientation: Time-resolved FRET reads energy transfer from a long-lived donor to a nearby acceptor.

Assay [4] concerns the target T4, human MERTK cytoplasmic domain (Homo sapiens, UniProt Q12866).
T4 construct: human MERTK cytoplasmic domain (Carna Biosciences 08-108); purchased Carna Biosciences 08-108
The assay can be described thus: biochemical. The protocol:
Assay 1a—MERTK HTRF KinEASE-TK Assay
The enzymatic reaction was carried out for 30 min at room temperature. 10 μL TK Antibody-Cryptate/Streptavidin-XL665 (Cisbio 610SAXLG) was then added for 60 min, including EDTA containing detection buffer (Cisbio 62SDBRDF) to stop the reaction.

Assay [5] addresses T5, Ba/F3 Pro B-cell line expressing BCR-human AXL kinase domain fusion protein (Homo sapiens, UniProt P30530).
T5 construct: P11274 (Breakpoint cluster region protein)
T5 sequence (P30530 536-807 limits assumed): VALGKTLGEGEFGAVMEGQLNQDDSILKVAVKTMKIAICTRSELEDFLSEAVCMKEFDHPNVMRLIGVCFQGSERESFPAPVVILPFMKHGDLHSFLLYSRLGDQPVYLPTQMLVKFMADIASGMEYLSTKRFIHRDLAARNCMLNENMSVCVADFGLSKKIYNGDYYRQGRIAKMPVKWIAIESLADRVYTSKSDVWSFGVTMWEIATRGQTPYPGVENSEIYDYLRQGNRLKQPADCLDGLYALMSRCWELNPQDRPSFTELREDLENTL
The assay can be described thus: Assay 5 Ba/F3 cell survival assay, BCR-Axl. The assay is classed as cell-based. Conditions: read-out: BCR-Axl Ba/F3 IC50, 48 h, CellTiter-Glo. The procedure, abridged: as §1

The mark [6] stands for this setting: cell survival, 48 h, CellTiter-Glo; read-out: TEL-MERTK Ba/F3 IC50.
The mark [7] stands for this setting: 30 uM ATP, read-out: Assay 1a Mer IC50 30 uM ATP.
[8] abbreviates: read-out: TEL-MERTK Ba/F3 IC50; cell survival, 48 h, CellTiter-Glo.

T4 sequence (Q12866 527-999): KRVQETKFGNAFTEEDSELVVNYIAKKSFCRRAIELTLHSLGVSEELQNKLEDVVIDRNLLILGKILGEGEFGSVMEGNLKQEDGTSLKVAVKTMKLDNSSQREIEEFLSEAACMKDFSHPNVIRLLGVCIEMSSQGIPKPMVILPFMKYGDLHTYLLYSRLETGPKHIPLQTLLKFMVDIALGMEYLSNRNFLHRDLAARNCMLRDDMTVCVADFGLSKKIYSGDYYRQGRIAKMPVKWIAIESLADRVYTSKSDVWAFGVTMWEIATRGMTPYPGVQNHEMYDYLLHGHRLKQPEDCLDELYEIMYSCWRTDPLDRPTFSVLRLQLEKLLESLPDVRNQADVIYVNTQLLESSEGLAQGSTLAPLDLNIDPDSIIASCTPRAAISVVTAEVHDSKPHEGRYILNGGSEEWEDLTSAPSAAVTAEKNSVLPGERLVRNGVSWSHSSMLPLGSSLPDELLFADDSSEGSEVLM

As for `CC(C)n1cc(C(=O)Nc2ccc(Oc3ccnc4cnc(N5CCN(C6COC6)CC5)cc34)cn2)c(=O)c(-c2ccc(F)cc2)c1` [Example 20.2, 5-(4-fluorophenyl)-1-isopropyl-N-[5-[[6-[4-(oxetan-3-yl)piperazin-1-yl]-1,7-naphthyridin-4-yl]oxy]-2-pyridyl]-4-oxo-pyridine-3-carboxamide], the IC50 is 5 nM in assay [1] (setting [6]); 220 nM in assay [2]; 7 nM in assay [3]; 1 nM in assay [4] (setting [7]); 2 nM in assay [5].

`O=C(Nc1ccc(Oc2ccnc3cnc(C4CCNC4)cc23)cn1)c1cccn(-c2ccc(F)cc2)c1=O` (stereo not drawn) [Example 21, 1-(4-fluorophenyl)-2-oxo-N-[5-[(6-pyrrolidin-3-yl-1,7-naphthyridin-4-yl)oxy]-2-pyridyl]pyridine-3-carboxamide]: the IC50 in assay [1] (setting [6]) was 217 nM; in assay [2], 2390 nM; in assay [3] it was 247 nM; in assay [4] (setting [7]), 57 nM; in assay [5] it was 203 nM.

Consider `O=C(Nc1ccc(Oc2ccnc3cnc(C4CCNCC4)cc23)cn1)c1cccn(-c2ccc(F)cc2)c1=O` [Example 21.1, 1-(4-fluorophenyl)-2-oxo-N-[5-[[6-(4-piperidyl)-1,7-naphthyridin-4-yl]oxy]-2-pyridyl]pyridine-3-carboxamide], for which the IC50 in assay [1] (setting [6]) amounted to 35 nM; in assay [2], 861 nM; in assay [3], 46 nM; in assay [4] (setting [7]) it was 9 nM; in assay [5], 46 nM.

On to `CC(C)C(=O)N1CCC(c2cc3c(Oc4ccc(NC(=O)c5cccn(-c6ccc(F)cc6)c5=O)nc4)ccnc3cn2)CC1` [Example 22, 1-(4-fluorophenyl)-N-[5-[[6-[1-(2-methylpropanoyl)-4-piperidyl]-1,7-naphthyridin-4-yl]oxy]-2-pyridyl]-2-oxo-pyridine-3-carboxamide], for which the IC50 in assay [1] (setting [8]) is 10 nM; in assay [2], above 2500 nM; in assay [3], 5 nM; in assay [4], 1 nM; in assay [5], 10 nM.

Turning to `CN1CCC(Oc2cc3c(Oc4ccc(NC(=O)c5cccn(-c6ccc(F)cc6)c5=O)nc4)ccnc3cn2)CC1` [Example 24, 1-(4-fluorophenyl)-N-[5-[[6-[(1-methyl-4-piperidyl)oxy]-1,7-naphthyridin-4-yl]oxy]-2-pyridyl]-2-oxo-pyridine-3-carboxamide], the IC50 in assay [1] (setting [8]) came out at 6 nM; in assay [2], 37 nM; in assay [3] it was 21 nM; in assay [4], 6 nM; in assay [5], 6 nM.

On to `Cc1cc(NC(=O)c2cccn(-c3ccc(F)cc3)c2=O)ncc1Oc1ccnc2cnc(C(=O)NC3CCN(C)CC3)cc12` [Example 25, 4-[[6-[[1-(4-fluorophenyl)-2-oxo-pyridine-3-carbonyl]amino]-4-methyl-3-pyridyl]oxy]-N-(1-methyl-4-piperidyl)-1,7-naphthyridine-6-carboxamide], for which the IC50 in assay [1] (setting [6]) was determined as 54 nM; in assay [2] it was 91 nM; in assay [3] it was 76 nM; in assay [4] (setting [7]), 29 nM; in assay [5] it was 27 nM.

`Cc1nc(NC(=O)c2cccn(-c3ccc(F)cc3)c2=O)ccc1Oc1ccnc2cnc(C(=O)NC3CCN(C)CC3)cc12` [Example 26, 4-[[6-[[1-(4-fluorophenyl)-2-oxo-pyridine-3-carbonyl]amino]-2-methyl-3-pyridyl]oxy]-N-(1-methyl-4-piperidyl)-1,7-naphthyridine-6-carboxamide]: the IC50 in assay [1] (setting [6]) was 55 nM; in assay [2], 1420 nM; in assay [3], 360 nM; in assay [4] (setting [7]), 19 nM; in assay [5], 83 nM.

Take `CC(C)n1cc(C(=O)Nc2ccc(Oc3ccnc4cnc(C(=O)NC5CCN(C(=O)OC(C)(C)C)CC5)cc34)cn2)c(=O)n(-c2ccc(F)cc2)c1=O` [Example 27.1, tert-butyl 4-[[4-[[6-[[3-(4-fluorophenyl)-1-isopropyl-2,4-dioxo-pyrimidine-5-carbonyl]amino]-3-pyridyl]oxy]-1,7-naphthyridine-6-carbonyl]amino]piperidine-1-carboxylate]: the IC50 is 67 nM in assay [1] (setting [6]); 881 nM in assay [2]; 3 nM in assay [3]; 11 nM in assay [4] (setting [7]); 15 nM in assay [5].

Regarding `CC(C)n1cc(C(=O)Nc2ccc(Oc3ccnc4cnc(C(=O)NC5CC6CCC(C5)N6C)cc34)cn2)c(=O)n(-c2ccc(F)cc2)c1=O` (stereo not drawn) [Example 27.2, 4-[[6-[[3-(4-fluorophenyl)-1-isopropyl-2,4-dioxo-pyrimidine-5-carbonyl]amino]-3-pyridyl]oxy]-N-(8-methyl-8-azabicyclo[3.2.1]octan-3-yl)-1,7-naphthyridine-6-carboxamide], the IC50 was determined as 49 nM in assay [1] (setting [6]); 376 nM in assay [2]; 4 nM in assay [3] (# 1 μM ATP used in assay, read-out: Assay 1b Axl IC50); 17 nM in assay [4] (setting [7]); 13 nM in assay [5].

Consider `CC(C)n1cc(C(=O)Nc2ccc(Oc3ccnc4cnc(C(=O)NCCN(C)C)cc34)cn2)c(=O)n(-c2ccc(F)cc2)c1=O` [Example 27.3, N-[2-(dimethylamino)ethyl]-4-[[6-[[3-(4-fluorophenyl)-1-isopropyl-2,4-dioxo-pyrimidine-5-carbonyl]amino]-3-pyridyl]oxy]-1,7-naphthyridine-6-carboxamide], for which the IC50 was 44 nM in assay [1] (setting [6]); 631 nM in assay [2]; 6 nM in assay [3]; 31 nM in assay [4] (setting [7]); 21 nM in assay [5].

With `Cc1cc(NC(=O)c2cccn(-c3ccccc3)c2=O)ccc1Oc1ccnc2cnc(C(=O)NC3CCN(C)CC3)cc12` [Example 34, 4-[2-Methyl-4-[(2-oxo-1-phenyl-pyridine-3-carbonyl)amino]phenoxy]-N-(1-methyl-4-piperidyl)-1,7-naphthyridine-6-carboxamide], the IC50 in assay [1] (setting [6]) was determined as 144 nM; in assay [2] it was 128 nM; in assay [3], 296 nM; in assay [4] (setting [7]), 43 nM; in assay [5] it was 73 nM.

In the case of `CN1CCN(c2cc3c(Oc4ccc(NC(=O)c5cccn(-c6ccc(F)cc6)c5=O)cc4)ccnc3cn2)CC1` [Example 35, 1-(4-fluorophenyl)-N-[4-[[6-(4-methylpiperazin-1-yl)-1,7-naphthyridin-4-yl]oxy]phenyl]-2-oxo-pyridine-3-carboxamide], the IC50 in assay [1] (setting [6]) is 14 nM; in assay [2], 116 nM; in assay [3], 60 nM; in assay [4] (setting [7]), 4 nM; in assay [5], 8 nM.
